The conditions of data set [1]: salt forms; dissolution medium, 55° C. water bath, 60 rpm; Table 4.
The nature of data set [2]: physchem. The following applies: 55 °C, aqueous with cosolvent or surfactant or cyclodextrin, thermodynamic from solid.

In brackets after ≈: the same amount, converted by molar mass. Like-named read-outs stand apart in the source and are kept apart here.

One may read the solubility as how much of the substance goes into solution per volume. On to “Buprenorphine acetate-hydrochloride salt”, for which the “solubility” value in data set [1] came out at 1716 µg/mL.
Regarding `COC12CC[C@@]3(C[C@@H]1[C@](C)(O)C(C)(C)C)C1Cc4ccc(O)c5c4[C@@]3(CCN1CC1CC1)[C@H]2O5` [Buprenorphine free base], the concentration in solution in data set [2] (solubility) was 1180 µg/mL (≈ 2510 µM).

Values taken from patent publication US12522610B2 (priority 2018, dated 2026).
